In ChEMBL document CHEMBL5500350, “Advances in TRPV6 inhibitors for tumors by targeted therapies: Macromolecular proteins, synthetic small molecule compounds, and natural compounds” (Eur J Med Chem, 2024):

Columns and labels:
[1] = target: T1, Transient receptor potential cation channel subfamily V member 6 (Homo sapiens, UniProt Q9H1D0); assay: Inhibition of TRPV6 (unknown origin) transfected in HEK293 cells assessed as reduction in TRPV6-induced Cd2+ influx
T1 sequence (Q9H1D0 whole entry): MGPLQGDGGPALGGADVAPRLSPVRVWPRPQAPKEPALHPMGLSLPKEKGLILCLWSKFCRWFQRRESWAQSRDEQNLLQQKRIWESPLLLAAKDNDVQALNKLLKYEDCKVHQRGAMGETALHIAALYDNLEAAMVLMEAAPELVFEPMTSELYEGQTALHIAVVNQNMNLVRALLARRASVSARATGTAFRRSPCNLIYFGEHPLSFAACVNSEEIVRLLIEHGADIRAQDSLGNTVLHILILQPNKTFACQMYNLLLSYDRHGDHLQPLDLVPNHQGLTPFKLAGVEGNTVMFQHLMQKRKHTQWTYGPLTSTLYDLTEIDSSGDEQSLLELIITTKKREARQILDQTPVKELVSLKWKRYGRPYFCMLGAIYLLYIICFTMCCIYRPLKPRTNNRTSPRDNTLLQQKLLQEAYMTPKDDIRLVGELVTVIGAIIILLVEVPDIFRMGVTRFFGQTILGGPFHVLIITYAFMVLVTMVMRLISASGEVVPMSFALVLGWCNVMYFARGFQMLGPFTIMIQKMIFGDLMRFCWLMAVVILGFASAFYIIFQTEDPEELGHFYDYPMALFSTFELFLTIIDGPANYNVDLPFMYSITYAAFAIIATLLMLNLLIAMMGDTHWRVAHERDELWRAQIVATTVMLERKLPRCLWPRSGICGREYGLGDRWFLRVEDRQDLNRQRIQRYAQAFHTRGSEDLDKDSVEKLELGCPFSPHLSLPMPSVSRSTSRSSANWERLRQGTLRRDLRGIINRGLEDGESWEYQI

LNCaP = assay: Antiproliferative activity against human LNCaP cells assessed as reduction in cell viability incubated for 72 hrs by XTT assay
T47D = assay: Antiproliferative activity against human T47D cells assessed as reduction in cell viability incubated for 72 hrs by XTT assay
[2] = target: T1, Transient receptor potential cation channel subfamily V member 6; assay: Inhibition of TRPV6 (unknown origin) expressed in Sf9 cells
[3] = target: T1, Transient receptor potential cation channel subfamily V member 6; assay: Inhibition of TRPV6 (unknown origin)

Compound | IC50 [1] [µM] | IC50 (LNCaP) [µM] | IC50 (T47D) [µM] | further results
c1ccc(COc2ccccc2CNC23CC4CC(CC(C4)C2)C3)cc1 | 21 |  |  | 
c1ccc(C2CCC(N3CCN(Cc4ccco4)CC3)CC2)cc1 (configuration not stated) | 25 |  |  | 
Fc1ccc(CCNCc2ccccc2OCc2ccc(F)cc2)cc1 | 15 |  |  | 
CN(C)c1ccc(CCN2CCC[C@@H]2CO)cc1 |  | 1 | 49.1 | 
COc1ccc(CCN2CCC[C@@H]2COC(c2ccccc2)c2ccc(Cl)cc2)cc1 (some centres not stated) |  | 50 | 220 | 
CCCc1cc(O)c2c(c1)OC(C)(C)[C@@H]1C=CC(C)=C[C@@H]21 |  |  |  | IC50 [2]: 9.4 µM
CN(C)c1ccc(CCN2CCC[C@@H]2COC(c2ccccc2)c2ccc(Cl)cc2)cc1 (some centres not stated) |  | 0.31 | 44.5 | 
COc1ccc(CCN2CCC[C@@H]2COC(c2ccccc2)c2ccccc2)cc1 |  | 61 | 198 | 
COc1ccc(CCN2CCC[C@@H]2COCc2ccc(Cl)cc2)cc1 |  | 0.44 | 38.8 | IC50 [3]: 0.44 µM
COc1cc(Br)ccc1CN1CCN(C2CCC(c3ccccc3)CC2)CC1 (configuration not stated) | 26 |  |  | 
c1ccc(Oc2cccc(CN3CCN(Cc4cccnc4)CC3)c2)cc1 | 17 |  |  | 
